From PubChem BioAssay (NCI)
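1) Cells in 96-well plates. 2) Compound, 48 h, 5 concentrations. 3) Linear interpolation between surrounding doses. 4) Unreached endpoint = highest concentration. TGI: concentration producing complete growth inhibition.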

Tests used:
Test in all cases: inhibition of tumour cell growth, NCI panel, 48 h
[1] = tested on: 786-0 renal
[2] = tested on: A498 renal
[3] = tested on: A549 NSCLC
[4] = tested on: ACHN renal
[5] = tested on: BT-549 breast
[6] = tested on: CAKI-1 renal
[7] = tested on: CCRF-CEM leukemia
[8] = tested on: COLO 205 colon
[9] = tested on: DU-145 prostate
[10] = tested on: EKVX NSCLC
[11] = tested on: HCT-116 colon
[12] = tested on: HCT-15 colon
[13] = tested on: HL-60(TB) leukemia
[14] = tested on: HOP-62 NSCLC
[15] = tested on: HOP-92 NSCLC
[16] = tested on: HS 578T breast
[17] = tested on: HT29 colon
[18] = tested on: IGROV1 ovarian
[19] = tested on: K-562 leukemia
[20] = tested on: KM12 colon
[21] = tested on: LOX IMVI melanoma
[22] = tested on: M14 melanoma
[23] = tested on: MALME-3M melanoma
[24] = tested on: MCF7 breast
[25] = tested on: MDA-MB-231 breast
[26] = tested on: MDA-MB-435
[27] = tested on: MDA-N
[28] = tested on: MOLT-4 leukemia
[29] = tested on: NCI-H226 lung
[30] = tested on: NCI-H23 lung
[31] = tested on: NCI-H460 lung
[32] = tested on: NCI-H522 lung
[33] = tested on: NCI/ADR-RES ovarian
[34] = tested on: OVCAR-3 ovarian
[35] = tested on: OVCAR-4 ovarian
[36] = tested on: OVCAR-5 ovarian
[37] = tested on: OVCAR-8 ovarian
[38] = tested on: PC-3 prostate
[39] = tested on: RPMI-8226 leukemia
[40] = tested on: RXF 393 renal
[41] = tested on: SF-268 CNS
[42] = tested on: SF-295 CNS
[43] = tested on: SF-539 CNS
[44] = tested on: SK-MEL-2 melanoma
[45] = tested on: SK-MEL-28 melanoma
[46] = tested on: SK-MEL-5 melanoma
[47] = tested on: SK-OV-3 ovarian
[48] = tested on: SN12C renal
[49] = tested on: SNB-19 CNS
[50] = tested on: SNB-75 CNS
[51] = tested on: SR leukemia
[52] = tested on: SW-620 colon
[53] = tested on: T-47D breast
[54] = tested on: TK-10 renal
[55] = tested on: U251 CNS
[56] = tested on: UACC-62 melanoma
[57] = tested on: UO-31 renal
[58] = tested on: HCC-2998 colon
[59] = tested on: UACC-257 melanoma

Structure (SMILES): Cc1cc2nc3[nH]c4c(Cl)cc(Cl)cc4c3nc2cc1C
- TGI [1]: > 100 µM
- TGI [2]: > 100 µM
- TGI [3]: > 100 µM
- TGI [4]: > 100 µM
- TGI [5]: > 100 µM
- TGI [6]: > 100 µM
- TGI [7]: > 100 µM
- TGI [8]: > 100 µM
- TGI [9]: > 100 µM
- TGI [10]: > 100 µM
- TGI [11]: > 100 µM
- TGI [12]: > 100 µM
- TGI [13]: > 100 µM
- TGI [14]: > 100 µM
- TGI [15]: > 100 µM
- TGI [16]: > 100 µM
- TGI [17]: > 100 µM
- TGI [18]: > 100 µM
- TGI [19]: > 100 µM
- TGI [20]: > 100 µM
- TGI [21]: > 100 µM
- TGI [22]: > 100 µM
- TGI [23]: > 100 µM
- TGI [24]: > 100 µM
- TGI [25]: > 100 µM
- TGI [26]: > 100 µM
- TGI [27]: > 100 µM
- TGI [28]: > 100 µM
- TGI [29]: > 100 µM
- TGI [30]: > 100 µM
- TGI [31]: > 100 µM
- TGI [32]: > 100 µM
- TGI [33]: > 100 µM
- TGI [34]: > 100 µM
- TGI [35]: > 100 µM
- TGI [36]: > 100 µM
- TGI [37]: > 100 µM
- TGI [38]: > 100 µM
- TGI [39]: > 100 µM
- TGI [40]: > 100 µM
- TGI [41]: > 100 µM
- TGI [42]: > 100 µM
- TGI [43]: > 100 µM
- TGI [44]: > 100 µM
- TGI [45]: > 100 µM
- TGI [46]: > 100 µM
- TGI [47]: > 100 µM
- TGI [48]: > 100 µM
- TGI [49]: > 100 µM
- TGI [50]: 42 µM
- TGI [51]: > 100 µM
- TGI [52]: > 100 µM
- TGI [53]: > 100 µM
- TGI [54]: 56.4 µM
- TGI [55]: > 100 µM
- TGI [56]: > 100 µM
- TGI [57]: > 100 µM

Structure (SMILES): COC(=O)C1C(O)C(C)C(O)C(C)(O)C=C(C)C2=C3C(=C(C)C(=O)c4c(O)c(c(C)c(OC(C)=O)c43)NC(=O)C(C)=C/C=C\C(C)(O)C(O)C(C)C1O)OCO2 (stereo not given)
- TGI [1]: > 100 µM
- TGI [2]: > 100 µM
- TGI [3]: > 100 µM
- TGI [4]: > 100 µM
- TGI [5]: > 100 µM
- TGI [7]: > 100 µM
- TGI [8]: 69.7 µM
- TGI [9]: > 100 µM
- TGI [10]: > 100 µM
- TGI [58]: > 100 µM
- TGI [11]: > 100 µM
- TGI [12]: > 100 µM
- TGI [13]: > 100 µM
- TGI [14]: > 100 µM
- TGI [15]: > 100 µM
- TGI [16]: > 100 µM
- TGI [17]: > 100 µM
- TGI [18]: > 100 µM
- TGI [19]: > 100 µM
- TGI [20]: > 100 µM
- TGI [21]: > 100 µM
- TGI [22]: > 100 µM
- TGI [23]: 74.2 µM
- TGI [24]: > 100 µM
- TGI [25]: > 100 µM
- TGI [26]: > 100 µM
- TGI [27]: > 100 µM
- TGI [28]: > 100 µM
- TGI [29]: > 100 µM
- TGI [30]: > 100 µM
- TGI [31]: > 100 µM
- TGI [32]: > 100 µM
- TGI [33]: > 100 µM
- TGI [34]: 57 µM
- TGI [35]: > 100 µM
- TGI [36]: > 100 µM
- TGI [37]: > 100 µM
- TGI [38]: > 100 µM
- TGI [39]: > 100 µM
- TGI [40]: > 100 µM
- TGI [41]: > 100 µM
- TGI [42]: > 100 µM
- TGI [43]: > 100 µM
- TGI [44]: > 100 µM
- TGI [45]: > 100 µM
- TGI [46]: 47.7 µM
- TGI [47]: > 100 µM
- TGI [48]: > 100 µM
- TGI [49]: > 100 µM
- TGI [50]: > 100 µM
- TGI [51]: > 100 µM
- TGI [52]: > 100 µM
- TGI [53]: > 100 µM
- TGI [54]: > 100 µM
- TGI [55]: > 100 µM
- TGI [59]: 78 µM
- TGI [56]: > 100 µM
- TGI [57]: > 100 µM
